#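 Test compounds were applied to cells in 96-well plates for 48 hours at 5 doses. TGI denotes the concentration required for complete inhibition of growth.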
# Key:
# Experiment in all cases: NCI tumour cell line growth inhibition, 48 h
# [1] = tested on: MDA-MB-435
# [2] = tested on: HCT-116 colon
# [3] = tested on: HOP-62 NSCLC
# [4] = tested on: MDA-MB-231 breast
# [5] = tested on: OVCAR-3 ovarian
# [6] = tested on: T-47D breast
# [7] = tested on: NCI-H522 lung
# [8] = tested on: IGROV1 ovarian
# [9] = tested on: HCC-2998 colon
# [10] = tested on: HT29 colon
# [11] = tested on: SK-MEL-5 melanoma
# [12] = tested on: HL-60(TB) leukemia
# [13] = tested on: HS 578T breast
# [14] = tested on: MOLT-4 leukemia
# [15] = tested on: KM12 colon
# [16] = tested on: SK-MEL-28 melanoma
# [17] = tested on: NCI/ADR-RES ovarian
# [18] = tested on: HCT-15 colon
# [19] = tested on: SNB-19 CNS
# [20] = tested on: ACHN renal
# [21] = tested on: MCF7 breast
# [22] = tested on: SK-MEL-2 melanoma
# [23] = tested on: NCI-H23 lung
# [24] = tested on: OVCAR-4 ovarian
# [25] = tested on: M14 melanoma
# [26] = tested on: NCI-H226 lung
# [27] = tested on: RXF 393 renal
# [28] = tested on: OVCAR-8 ovarian
# [29] = tested on: SR leukemia
# [30] = tested on: UO-31 renal
# [31] = tested on: RPMI-8226 leukemia
# [32] = tested on: HOP-92 NSCLC
# [33] = tested on: MALME-3M melanoma
# [34] = tested on: K-562 leukemia
# [35] = tested on: SNB-75 CNS
# [36] = tested on: SF-268 CNS
# [37] = tested on: U251 CNS
# [38] = tested on: SF-539 CNS
# [39] = tested on: 786-0 renal
# [40] = tested on: OVCAR-5 ovarian
# [41] = tested on: TK-10 renal
# [42] = tested on: SW-620 colon
# [43] = tested on: CAKI-1 renal
# [44] = tested on: A498 renal
# [45] = tested on: DU-145 prostate
# [46] = tested on: SN12C renal
# [47] = tested on: CCRF-CEM leukemia
# [48] = tested on: SF-295 CNS
# [49] = tested on: UACC-257 melanoma
# [50] = tested on: LOX IMVI melanoma
# [51] = tested on: BT-549 breast
# [52] = tested on: COLO 205 colon
# [53] = tested on: MDA-N
# [54] = tested on: A549 NSCLC
# [55] = tested on: PC-3 prostate
# [56] = tested on: NCI-H460 lung
# [57] = tested on: EKVX NSCLC
# [58] = tested on: SK-OV-3 ovarian
# [59] = tested on: UACC-62 melanoma
smiles,measurement,setting,value
CCCCc1cc2c(C)cc(=O)oc2c(O)c1O,TGI,[1],> 100 µM
same,TGI,[2],96.1 µM
same,TGI,[3],65.8 µM
same,TGI,[4],28 µM
same,TGI,[5],82 µM
same,TGI,[6],82.3 µM
same,TGI,[7],49 µM
same,TGI,[8],51.7 µM
same,TGI,[9],15.7 µM
same,TGI,[10],77 µM
same,TGI,[11],46.5 µM
same,TGI,[12],38.4 µM
same,TGI,[13],59.5 µM
same,TGI,[14],> 100 µM
same,TGI,[15],64.3 µM
same,TGI,[16],> 100 µM
same,TGI,[17],56.4 µM
same,TGI,[18],> 100 µM
same,TGI,[19],> 100 µM
same,TGI,[20],94 µM
same,TGI,[21],45.7 µM
same,TGI,[22],> 100 µM
same,TGI,[23],> 100 µM
same,TGI,[24],> 100 µM
same,TGI,[25],85 µM
same,TGI,[26],67.9 µM
same,TGI,[27],59.6 µM
same,TGI,[28],> 100 µM
same,TGI,[29],40.2 µM
same,TGI,[30],54.6 µM
same,TGI,[31],43.3 µM
same,TGI,[32],59.6 µM
same,TGI,[33],88.9 µM
same,TGI,[34],73.5 µM
same,TGI,[35],> 100 µM
same,TGI,[36],> 100 µM
same,TGI,[37],56.1 µM
same,TGI,[38],47.4 µM
same,TGI,[39],99.4 µM
same,TGI,[40],> 100 µM
same,TGI,[41],> 100 µM
same,TGI,[42],62.2 µM
same,TGI,[43],53.3 µM
same,TGI,[44],72 µM
same,TGI,[45],> 100 µM
same,TGI,[46],> 100 µM
same,TGI,[47],56.3 µM
same,TGI,[48],67.3 µM
same,TGI,[49],66.1 µM
same,TGI,[50],61 µM
same,TGI,[51],33.6 µM
same,TGI,[52],56.5 µM
same,TGI,[53],> 100 µM
same,TGI,[54],> 100 µM
same,TGI,[55],68.1 µM
same,TGI,[56],> 100 µM
same,TGI,[57],> 100 µM
CCCn1c(SC)nc(COC(=O)NC)c1COC(=O)NC,TGI,[1],> 100 µM
same,TGI,[2],> 100 µM
same,TGI,[3],> 100 µM
same,TGI,[4],> 100 µM
same,TGI,[5],> 100 µM
same,TGI,[6],> 100 µM
same,TGI,[7],> 100 µM
same,TGI,[8],> 100 µM
same,TGI,[10],> 100 µM
same,TGI,[11],> 100 µM
same,TGI,[12],> 100 µM
same,TGI,[13],> 100 µM
same,TGI,[58],> 100 µM
same,TGI,[14],> 100 µM
same,TGI,[15],> 100 µM
same,TGI,[16],> 100 µM
same,TGI,[17],> 100 µM
same,TGI,[18],> 100 µM
same,TGI,[19],> 100 µM
same,TGI,[20],> 100 µM
same,TGI,[21],> 100 µM
same,TGI,[22],> 100 µM
same,TGI,[23],> 100 µM
same,TGI,[24],> 100 µM
same,TGI,[25],> 100 µM
same,TGI,[26],> 100 µM
same,TGI,[28],> 100 µM
same,TGI,[29],> 100 µM
same,TGI,[30],> 100 µM
same,TGI,[31],> 100 µM
same,TGI,[34],> 100 µM
same,TGI,[35],> 100 µM
same,TGI,[36],> 100 µM
same,TGI,[38],> 100 µM
same,TGI,[39],> 100 µM
same,TGI,[40],> 100 µM
same,TGI,[41],> 100 µM
same,TGI,[42],> 100 µM
same,TGI,[43],> 100 µM
same,TGI,[44],> 100 µM
same,TGI,[59],> 100 µM
same,TGI,[45],> 100 µM
same,TGI,[46],> 100 µM
same,TGI,[47],> 100 µM
same,TGI,[48],> 100 µM
same,TGI,[49],> 100 µM
same,TGI,[50],> 100 µM
same,TGI,[51],> 100 µM
same,TGI,[52],> 100 µM
same,TGI,[53],> 100 µM
same,TGI,[54],> 100 µM
same,TGI,[55],> 100 µM
same,TGI,[56],> 100 µM
same,TGI,[57],> 100 µM
CCOC(=O)C(NC(=O)N(C1=NCC(C)S1)C1CCCCC1)(OC)C(F)(F)F (stereo not drawn),TGI,[1],> 100 µM
same,TGI,[2],> 100 µM
same,TGI,[3],41.7 µM
same,TGI,[4],> 100 µM
same,TGI,[5],71.1 µM
same,TGI,[6],> 100 µM
same,TGI,[7],83.4 µM
same,TGI,[9],> 100 µM
same,TGI,[10],53 µM
same,TGI,[11],66.8 µM
same,TGI,[12],59.5 µM
same,TGI,[13],> 100 µM
same,TGI,[58],> 100 µM
same,TGI,[14],> 100 µM
same,TGI,[15],> 100 µM
same,TGI,[16],> 100 µM
same,TGI,[17],> 100 µM
same,TGI,[18],> 100 µM
same,TGI,[19],> 100 µM
same,TGI,[20],89.9 µM
same,TGI,[21],62.2 µM
same,TGI,[22],> 100 µM
same,TGI,[23],> 100 µM
same,TGI,[24],> 100 µM
same,TGI,[25],> 100 µM
same,TGI,[26],47.5 µM
same,TGI,[27],45.5 µM
same,TGI,[28],> 100 µM
same,TGI,[29],> 100 µM
same,TGI,[30],> 100 µM
same,TGI,[32],> 100 µM
same,TGI,[33],> 100 µM
same,TGI,[34],> 100 µM
same,TGI,[35],75.1 µM
same,TGI,[36],> 100 µM
same,TGI,[37],53.6 µM
same,TGI,[38],93.1 µM
same,TGI,[39],28.9 µM
same,TGI,[40],> 100 µM
same,TGI,[41],> 100 µM
same,TGI,[42],> 100 µM
same,TGI,[43],> 100 µM
same,TGI,[44],44.4 µM
same,TGI,[59],> 100 µM
same,TGI,[45],> 100 µM
same,TGI,[46],29.3 µM
same,TGI,[47],> 100 µM
same,TGI,[48],> 100 µM
same,TGI,[49],> 100 µM
same,TGI,[50],60.8 µM
same,TGI,[51],> 100 µM
same,TGI,[52],50.8 µM
same,TGI,[53],> 100 µM
same,TGI,[54],> 100 µM
same,TGI,[55],> 100 µM
same,TGI,[56],> 100 µM
same,TGI,[57],> 100 µM

# From PubChem BioAssay (NCI)
